From patent US20250144170A1, “METHOD FOR SUSTAINED DRUG DELIVERY FOR WOUND HEALING USING SILK HYDROGEL AND PRODUCT THEREOF” (AASYA HEALTH CARE PRIVATE LIMITED, priority 2022, published 2025)

Assays:
Type in all cases: cell-based
[1] = test system: S. aureus; experiment: Zone of inhibition on agar plates; conditions: Staphylococcus aureus, 37° C., 24 h, 25 mg hydrogel with 2 mg drug
Procedure: (§1) S. aureus and S. mutans were cultured in nutrient broth and spread onto agar plates. Hydrogels (25 mg SF doxy hydrogel having 5 mm diameter with 2 mg drug) were kept in each plate in the center on the media and for doxycycline, drug was added in the center where the media was punched out. Plates were incubated at 37° C. for 24 h. After the incubation period, radius of the zone of inhibition was measured in each plate.

[2] = test system: S. mutans; experiment: Zone of inhibition on agar plates; conditions: Streptococcus mutans, 37° C., 24 h, 25 mg hydrogel with 2 mg drug
Procedure: as §1

[3] = MTT assay cell viability
Procedure: All the three cell lines (10,000 cells/200 μl medium) were cultured in their respective media in 96-well plates until they reached 60% confluency. Hydrogels and doxycycline were added in their respective wells. Plates were incubated at 37° C., 5% CO2, for 24 h. Media were removed and 200 μl of MTT solution (0.5 mg/ml prepared in phosphate buffer saline (PBS, Himedia, Catalog #TS1119)) was added to each well. Plate was incubated in dark at 37° C., 5% CO2 for 4h. MTT solution was then removed and 100 μl demthyl sulfoxide (DMSO) was added to each well to dissolve the formazan crystal. Absorbance was calculated at 570 nm in the multiplate reader. Percent of cell viability was calculated using Equation 2.
Where, O.D. is optical density at 570 nm.

C[C@H]1c2cccc(O)c2C(=O)C2=C(O)[C@]3(O)C(=O)C(C(N)=O)=C(O)[C@@H](N(C)C)[C@@H]3[C@@H](O)[C@@H]21 [doxycycline]
zone of inhibition at 2000 µg/disc [1]: 10 mm
zone of inhibition at 2000 µg/disc [2]: 25 mm
viability at 24 h ([3]; human, HDFC cells): 40%
viability at 24 h ([3]; human, MG63 cells, MG63, 24 h): 40%
viability at 24 h ([3]; mouse, MC3T3 cells, MC3T3, 24 h): 40%
